Here are results for 24 compounds from patent EP4722208A1, “NOVEL BENZAMIDE DERIVATIVE COMPOUND AND PHARMACEUTICAL COMPOSITION COMPRISING SAME” (Samjin Pharmaceutical Co., Ltd., priority 2023, dated 2024).

Structures can show the parent of a compound that is named as a salt.

T1 sequence (P43490 whole entry): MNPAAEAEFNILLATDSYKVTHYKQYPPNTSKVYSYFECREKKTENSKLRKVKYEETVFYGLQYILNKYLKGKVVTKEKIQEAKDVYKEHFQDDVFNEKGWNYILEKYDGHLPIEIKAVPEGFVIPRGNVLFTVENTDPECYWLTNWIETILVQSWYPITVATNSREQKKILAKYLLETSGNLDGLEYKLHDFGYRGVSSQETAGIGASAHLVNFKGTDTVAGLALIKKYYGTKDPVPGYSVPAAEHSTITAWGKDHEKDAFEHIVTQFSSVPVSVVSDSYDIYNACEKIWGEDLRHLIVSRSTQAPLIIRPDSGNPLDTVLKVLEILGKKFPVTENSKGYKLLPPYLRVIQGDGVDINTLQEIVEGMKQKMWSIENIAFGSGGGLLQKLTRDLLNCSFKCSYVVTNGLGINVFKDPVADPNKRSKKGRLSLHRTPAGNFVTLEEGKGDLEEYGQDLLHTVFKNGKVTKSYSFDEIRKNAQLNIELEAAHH

The first assay has as its system HCT116 colorectal cancer cell lines. Kind of assay: Tumor cytotoxicity assay (MTT). In kind it is cell-based. Conditions: Homo sapiens, HCT-116, HCT116 cells, 72 hours treatment, 0.1 nM to 1000 nM. As for the experimental part:
The anticancer efficacy of the compound of the present invention was evaluated using the MTT analysis method in HCT116 colorectal cancer cell lines. The cells were incubated using DMEM medium containing 10% FBS. The cells were distributed in a 96-well plate at a density of 2,500 cells per well, the HCT116 cells were incubated for 24 hours, and then treated with a drug using a serum free DMEM. First, a compound was prepared in 100% dimethyl sulfoxide (DMSO) at a concentration of 0.02 µM to 200 µM, diluted in the culture medium so that the final concentration of DMSO might reach 0.5%, and treated with the drug so that the final concentration of the compound might range from 0.1 nM to 1000 nM. After that, they were further incubated for 72 hours at 37°C and CO2 5% and treated with MTT (Sigma-Aldrich, M2128) to confirm cytotoxicity. Formazan produced from reduction by enzymes in the mitochondria of living cells was measured using Spark® Multimode Microplate Reader TECAN equipment. A cell viability (%) was relatively determined by subtracting a reference 650 nm optical density (O.D.) from 570 nm O.D., in which the 0.5% DMSO-treated control was set as a standard of 100%. […]
The compound `Nc1ccc(CS(=O)(=O)c2ccc(C(=O)NCc3ccn4ccnc4c3)cc2C#Cc2ccc(F)cc2)cc1` [compound 148, 4-((4-aminobenzyl)sulfonyl)-3-((4-fluorophenyl)ethynyl)-N-(imidazo[1,2-a]pyridin-7-ylmethyl)benzamide] had a cytotoxic concentration (CC50) of 0.1 to 1 µM.
`Cn1ccc(CS(=O)(=O)c2ccc(C(=O)NCc3ccn4ccnc4c3)cc2C#Cc2cccc(CN)c2)n1` [compound 232, 3-((3-(aminomethyl)phenyl)ethynyl)-N-(imidazo[1,2-a]pyridin-7-ylmethyl)-4-(((1-methyl-1H-pyrazol-3-yl)methyl)sulfonyl)benzamide] displayed a CC50 of at most 0.03 µM.
Same read-out and setting: the figure for `O=C(NCc1ccn2ccnc2c1)c1ccc(S(=O)(=O)Cc2cc[nH]n2)c(C#Cc2ccc(F)cc2)c1` [compound 234, 4-(((1H-pyrazol-3-yl)methyl)sulfonyl)-3-((4-fluorophenyl)ethynyl)-N-(imidazo[1,2-a]pyridin-7-ylmethyl)benzamide] is at most 0.03 µM.

The next assay concerns the target T1, Recombinant NAMPT protein (Homo sapiens, UniProt P43490).
T1 construct: purchased BPS bioscience # 7176-1
Kind of assay: NAMPT enzyme inhibition assay (BPS bioscience NAMPT Inhibitor Screening Assay Kit, fluorescence). In kind it is biochemical. The settings on record: 30 min pre-incubation, 2 h at 30°C, compound 1000 nM to 3 nM, n=2. As for the experimental part:
The NAMPT enzyme activity inhibition ability of the compound of the present invention was evaluated using the NAMPT Inhibitor Screening Assay Kit (# 7176-1) from BPS bioscience. Recombinant NAMPT protein was added to each well of a black 96-well plate, and dilution buffer was added to a blank well instead of NAMPT protein. A 5 x concentrated compound solution was added and pre-incubated at room temperature (approximately 22°C) for 30 minutes before the start of the reaction so that the compound and protein might bind before the enzyme reaction. At this time, the concentration of NAMPT protein was adjusted and used according to the enzyme activity of each protein lot within the final concentration range of 4-10 ng/µl, and the test compound was serially diluted at a ratio of 1:3 from 1000 nM to 3 nM, and experiments were conducted with n=2 for about seven concentrations. A 2 x concentrated test buffer containing ATP (final concentration of 20 µM), nicotinamide (final concentration of 20 µM), phosphoribosyl pyrophosphate (PRPP, final concentration of 40 µM), and ethanol (final concentration of 1.5%) was added, and the plate was incubated at 30°C for two hours, after which the fluorescence of a resulting reaction product was measured with excitation of 340 nm and emission of 460 nm. The NAMPT enzyme activity (%) was calculated by subtracting the measurement value of the blank well without NAMPT protein from the measurement value of all wells, and then taking the measurement value of the control well without the compound as 100%.
As for `Cn1ccc(CS(=O)(=O)c2ccc(C(=O)NCCc3c[nH]c4ccncc34)cc2C#Cc2ccc(F)cc2)n1` [compound 3, N-(2-(1H-pyrrolo[3,2-c]pyridin-3-yl)ethyl)-3-((4-fluorophenyl)ethynyl)-4-(((1-methyl-1H-pyrazol-3-yl)methyl)sulfonyl)benzamide], the IC50 was below 0.5 µM.
On the same count and under the same terms, the figure for `O=C(NCCCc1cn[nH]c1)c1ccc(S(=O)(=O)Cc2ccn(-c3ccc(C(F)(F)F)cc3)n2)c(C#Cc2ccc(F)cc2)c1` [compound 4, N-(3-(1H-pyrazol-4-yl)propyl)-3-((4-fluorophenyl)ethynyl)-4-(((1-(4-(trifluoromethyl)phenyl)-1H-pyrazol-3-yl)methyl)sulfonyl)benzamide] is 0.5 to 1 µM.
Turning to `Cc1cccc(CS(=O)(=O)c2ccc(C(=O)NCCCc3cn[nH]c3)cc2C#Cc2ccc(F)cc2)c1C` [compound 5, N-(3-(1H-pyrazol-4-yl)propyl)-4-((2,3-dimethylbenzyl)sulfonyl)-3-((4-fluorophenyl)ethynyl)benzamide], the IC50 was at least 1 µM.
Same read-out and setting: for `CNS(=O)(=O)c1ccc(C(=O)NCCCc2cn[nH]c2)cc1C#Cc1ccc(F)cc1` [compound 6, N-(3-(1H-pyrazol-4-yl)propyl)-3-((4-fluorophenyl)ethynyl)-4-(N-methylsulfamoyl)benzamide] the value was at least 1 µM; for `Cn1ccc(CS(=O)(=O)c2ccc(C(=O)NCCc3ccc([N+](=O)[O-])nc3)cc2C#Cc2ccc(F)cc2)n1` [compound 7, 3-((4-fluorophenyl)ethynyl)-4-(((1-methyl-1H-pyrazol-3-yl)methyl)sulfonyl)-N-(2-(6-nitropyridin-3-yl)ethyl)benzamide], at least 1 µM; for `Cn1ccc(CS(=O)(=O)c2ccc(C(=O)NCCc3ccc(N)nc3)cc2C#Cc2ccc(F)cc2)n1` [compound 8, N-(2-(6-aminopyridin-3-yl)ethyl)-3-((4-fluorophenyl)ethynyl)-4-(((1-methyl-1H-pyrazol-3-yl)methyl)sulfonyl)benzamide], at least 1 µM.
With `O=C(NCCCc1cn[nH]c1)c1ccc(S(=O)(=O)Cc2cccc(C(F)(F)F)c2)c(C#Cc2ccc(F)cc2)c1` [compound 9, N-(3-(1H-pyrazol-4-yl)propyl)-3-((4-fluorophenyl)ethynyl)-4-((3-(trifluoromethyl)benzyl)sulfonyl)benzamide], the IC50 lay within 0.5 to 1 µM.
Same read-out and setting: for `Cn1ccc(CNS(=O)(=O)c2ccc(C(=O)NCc3ccn4ccnc4c3)cc2C#Cc2ccc(F)cc2)n1` [compound 115, 3-((4-fluorophenyl)ethynyl)-N-(imidazo[1,2-a]pyridin-7-ylmethyl)-4-(N-((1-methyl-1H-pyrazol-3-yl)methyl)sulfamoyl)benzamide] the value was below 0.5 µM; for `O=C(NCc1ccn2ccnc2c1)c1ccc(S(=O)(=O)Cc2ccn(C3CCNCC3)n2)c(C#Cc2ccc(F)cc2)c1` [compound 122, 3-((4-fluorophenyl)ethynyl)-N-(imidazo[1,2-a]pyridin-7-ylmethyl)-4-(((1-(piperidin-4-yl)-1H-pyrazol-3-yl)methyl)sulfonyl)benzamide], at least 1 µM; for `Nc1cccc(CS(=O)(=O)c2ccc(C(=O)NCc3ccn4ccnc4c3)cc2C#Cc2ccc(F)cc2)c1` [compound 147], below 0.5 µM.
Same read-out and setting: for `Nc1ccc(CS(=O)(=O)c2ccc(C(=O)NCc3ccn4ccnc4c3)cc2C#Cc2ccc(F)cc2)cc1` [compound 148, 4-((4-aminobenzyl)sulfonyl)-3-((4-fluorophenyl)ethynyl)-N-(imidazo[1,2-a]pyridin-7-ylmethyl)benzamide] the value was below 0.5 µM.
Regarding `Cn1ccc(CS(=O)(=O)c2ccc(C(=O)NCc3ccn4ccnc4c3)cc2C#Cc2ccc(C(=O)NCCN3CCNCC3)cc2)n1` [compound 193, N-(imidazo[1,2-a]pyridin-7-ylmethyl)-4-(((1-methyl-1H-pyrazol-3-yl)methyl)sulfonyl)-3-((4-((2-(piperazin-1-yl)ethyl)carbamoyl)phenyl)ethynyl)benzamide], the IC50 was at least 1 µM.
On to `Cn1ccc(CS(=O)(=O)c2ccc(C(=O)NCc3ccn4ccnc4c3)cc2C#Cc2ccc3c(c2)CCNC3)n1` [compound 231, N-(imidazo[1,2-a]pyridin-7-ylmethyl)-4-(((1-methyl-1H-pyrazol-3-yl)methyl)sulfonyl)-3-((1,2,3,4-tetrahydroisoquinolin-6-yl)ethynyl)benzamide], for which the IC50 is below 0.5 µM.
On to `Cn1ccc(CS(=O)(=O)c2ccc(C(=O)NCc3ccn4ccnc4c3)cc2C#Cc2cccc(CN)c2)n1` [compound 232, 3-((3-(aminomethyl)phenyl)ethynyl)-N-(imidazo[1,2-a]pyridin-7-ylmethyl)-4-(((1-methyl-1H-pyrazol-3-yl)methyl)sulfonyl)benzamide], for which the IC50 is below 0.5 µM.
Still for that read-out and setting: the figure for `Nc1ccc(-n2ccc(CS(=O)(=O)c3ccc(C(=O)NCc4ccn5ccnc5c4)cc3C#Cc3ccc(F)cc3)n2)cc1` [compound 233, 4-(((1-(4-aminophenyl)-1H-pyrazol-3-yl)methyl)sulfonyl)-3-((4-fluorophenyl)ethynyl)-N-(imidazo[1,2-a]pyridin-7-ylmethyl)benzamide] is below 0.5 µM; for `O=C(NCc1ccn2ccnc2c1)c1ccc(S(=O)(=O)Cc2cc[nH]n2)c(C#Cc2ccc(F)cc2)c1` [compound 234, 4-(((1H-pyrazol-3-yl)methyl)sulfonyl)-3-((4-fluorophenyl)ethynyl)-N-(imidazo[1,2-a]pyridin-7-ylmethyl)benzamide] it is below 0.5 µM; for `COc1cc(C#Cc2cc(C(=O)NCCCc3cn[nH]c3)ccc2S(=O)(=O)Cc2ccn(C)n2)ccc1C` [compound 235, N-(3-(1H-pyrazol-4-yl)propyl)-3-((3-methoxy-4-methylphenyl)ethynyl)-4-(((1-methyl-1H-pyrazol-3-yl)methyl)sulfonyl)benzamide] it is below 0.5 µM.
The same measure, in the same setting: the figure for `Cn1ccc(CS(=O)(=O)c2ccc(C(=O)NCCCc3cn[nH]c3)cc2C#Cc2ccc(OC(F)(F)F)cc2)n1` [compound 236, N-(3-(1H-pyrazol-4-yl)propyl)-4-(((1-methyl-1H-pyrazol-3-yl)methyl)sulfonyl)-3-((4-(trifluoromethoxy)phenyl)ethynyl)benzamide] is at least 1 µM.
Turning to `Cn1ccc(CS(=O)(=O)c2ccc(C(=O)NCCCc3cn[nH]c3)cc2C#Cc2ccncc2)n1` [compound 237, N-(3-(1H-pyrazol-4-yl)propyl)-4-(((1-methyl-1H-pyrazol-3-yl)methyl)sulfonyl)-3-(pyridin-4-ylethynyl)benzamide], the IC50 was below 0.5 µM.
Consider `Cn1ccc(CS(=O)(=O)c2ccc(C(=O)NCc3ccc4nccn4c3)cc2C#Cc2ccc(N)cc2)n1` [compound 240, 3-((4-aminophenyl)ethynyl)-N-(imidazo[1,2-a]pyridin-6-ylmethyl)-4-(((1-methyl-1H-pyrazol-3-yl)methyl)sulfonyl)benzamide], for which the IC50 is below 0.5 µM.
The same measure, in the same setting: the figure for `Cn1ccc(CS(=O)(=O)c2ccc(C(=O)NCc3ccn4ccnc4c3)cc2C#Cc2ccc(C(=O)NCCN3CCCCC3)cc2)n1` [compound 242, N-(imidazo[1,2-a]pyridin-7-ylmethyl)-4-(((1-methyl-1H-pyrazol-3-yl)methyl)sulfonyl)-3-((4-((2-(piperidin-1-yl)ethyl)carbamoyl)phenyl)ethynyl)benzamide] is 0.5 to 1 µM.
As to `Cn1ccc(CS(=O)(=O)c2ccc(C(=O)NCc3ccn4ccnc4c3)cc2C#Cc2ccc(N)nc2)n1` [compound 243, 3-((6-aminopyridin-3-yl)ethynyl)-N-(imidazo[1,2-a]pyridin-7-ylmethyl)-4-(((1-methyl-1H-pyrazol-3-yl)methyl)sulfonyl)benzamide], the IC50 is below 0.5 µM.
On the same count and under the same terms, for `CN(C)c1ccc(C#Cc2cc(C(=O)NCCCc3cn[nH]c3)ccc2S(=O)(=O)Cc2ccn(C)n2)cc1` [compound 244, N-(3-(1H-pyrazol-4-yl)propyl)-3-((4-(dimethylamino)phenyl)ethynyl)-4-(((1-methyl-1H-pyrazol-3-yl)methyl)sulfonyl)benzamide] the value was at least 1 µM; for `Cn1ccc(CS(=O)(=O)c2ccc(C(=O)NCCCc3cn[nH]c3)cc2C#Cc2ccc(C3CCNCC3)cc2)n1` [compound 245, N-(3-(1H-pyrazol-4-yl)propyl)-4-(((1-methyl-1H-pyrazol-3-yl)methyl)sulfonyl)-3-((4-(piperidin-4-yl)phenyl)ethynyl)benzamide hydrochloride], below 0.5 µM.
